{"source": "the supplement of paper PMC10307832", "experiment_in_all_cases": "relative viability (nuclei count vs DMSO), 5 days (fraction); higher = more cells survive", "key": {"[1]": {"tested_on": "201T", "procedure,_shortened": "(§1)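 Cells from lung cancer lines were seeded into 1536-well plates and, one day later, dosed by pin tool. Treatments were either a single drug or a fixed dose of an anchor drug with five library-drug doses (not always all listed) in √10 steps. After 5 days, nuclei were stained in a one-step fixation (final 0.05% Triton X-100, 1% formaldehyde, 1 ug/ml Hoechst) and counted on 4× images, and relative viability is the treated-to-vehicle nuclei ratio, as the median of duplicate plates.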"}, "[2]": {"tested_on": "EMC-BAC-2", "procedure,_shortened": "as §1"}, "[3]": {"tested_on": "EPLC-272H", "procedure,_shortened": "as §1"}, "[4]": {"tested_on": "HCC-78", "procedure,_shortened": "as §1"}, "[5]": {"tested_on": "IA-LM", "procedure,_shortened": "as §1"}, "[6]": {"tested_on": "LCLC-103H", "procedure,_shortened": "as §1"}, "[7]": {"tested_on": "NCI-H1355", "procedure,_shortened": "as §1"}, "[8]": {"tested_on": "NCI-H1666", "procedure,_shortened": "as §1"}, "[9]": {"tested_on": "NCI-H1755", "procedure,_shortened": "as §1"}, "[10]": {"tested_on": "NCI-H1793", "procedure,_shortened": "as §1"}, "[11]": {"tested_on": "NCI-H1975", "procedure,_shortened": "as §1"}, "[12]": {"tested_on": "NCI-H2126", "procedure,_shortened": "as §1"}, "[13]": {"tested_on": "NCI-H2170", "procedure,_shortened": "as §1"}, "[14]": {"tested_on": "NCI-H2228", "procedure,_shortened": "as §1"}, "[15]": {"tested_on": "NCI-H2342", "procedure,_shortened": "as §1"}, "[16]": {"tested_on": "NCI-H441", "procedure,_shortened": "as §1"}, "[17]": {"tested_on": "NCI-H520", "procedure,_shortened": "as §1"}, "[18]": {"tested_on": "NCI-H727", "procedure,_shortened": "as §1"}, "[19]": {"tested_on": "NCI-H838", "procedure,_shortened": "as §1"}, "[20]": {"tested_on": "PC-3 [JPC-3]", "procedure,_shortened": "as §1"}, "[21]": {"tested_on": "SK-MES-1", "procedure,_shortened": "as §1"}, "[22]": {"tested_on": "SW 1573", "procedure,_shortened": "as §1"}}}
{"compound": "Nc1cccc2c1CN(C1CCC(=O)NC1=O)C2=O", "note": "(stereo unspecified) [Lenalidomide] + O=C(CCCCCCC(=O)Nc1ccccc1)NO [Vorinostat] (partner 1 µM)", "values": [{"measurement": "relative viability", "setting": "[1]; first compound 0.253 µM", "result": 0.963}, {"measurement": "relative viability", "setting": "[1]; first compound 0.8 µM", "result": 0.791}, {"measurement": "relative viability", "setting": "[1]; first compound 2.53 µM", "result": 0.955}, {"measurement": "relative viability", "setting": "[1]; first compound 8 µM", "result": 0.859}, {"measurement": "relative viability", "setting": "[2]; first compound 0.253 µM", "result": 0.74}, {"measurement": "relative viability", "setting": "[2]; first compound 0.8 µM", "result": 0.42}, {"measurement": "relative viability", "setting": "[2]; first compound 2.53 µM", "result": 0.446}, {"measurement": "relative viability", "setting": "[2]; first compound 8 µM", "result": 0.335}, {"measurement": "relative viability", "setting": "[3]; first compound 0.253 µM", "result": 0.481}, {"measurement": "relative viability", "setting": "[3]; first compound 2.53 µM", "result": 0.296}, {"measurement": "relative viability", "setting": "[3]; first compound 8 µM", "result": 0.451}, {"measurement": "relative viability", "setting": "[4]; first compound 0.253 µM", "result": 0.447}, {"measurement": "relative viability", "setting": "[4]; first compound 0.8 µM", "result": 0.456}, {"measurement": "relative viability", "setting": "[4]; first compound 2.53 µM", "result": 0.474}, {"measurement": "relative viability", "setting": "[4]; first compound 8 µM", "result": 0.486}, {"measurement": "relative viability", "setting": "[5]; first compound 0.253 µM", "result": 0.852}, {"measurement": "relative viability", "setting": "[5]; first compound 0.8 µM", "result": 0.969}, {"measurement": "relative viability", "setting": "[5]; first compound 2.53 µM", "result": 1.22}, {"measurement": "relative viability", "setting": "[5]; first compound 8 µM", "result": 0.814}, {"measurement": "relative viability", "setting": "[6]; first compound 0.253 µM", "result": 0.761}, {"measurement": "relative viability", "setting": "[6]; first compound 0.8 µM", "result": 0.679}, {"measurement": "relative viability", "setting": "[6]; first compound 2.53 µM", "result": 0.818}, {"measurement": "relative viability", "setting": "[6]; first compound 8 µM", "result": 0.616}, {"measurement": "relative viability", "setting": "[7]; first compound 0.253 µM", "result": 0.608}, {"measurement": "relative viability", "setting": "[7]; first compound 0.8 µM", "result": 0.455}, {"measurement": "relative viability", "setting": "[7]; first compound 2.53 µM", "result": 0.707}, {"measurement": "relative viability", "setting": "[7]; first compound 8 µM", "result": 0.495}, {"measurement": "relative viability", "setting": "[8]; first compound 0.253 µM", "result": 1.05}, {"measurement": "relative viability", "setting": "[8]; first compound 0.8 µM", "result": 1.01}, {"measurement": "relative viability", "setting": "[8]; first compound 2.53 µM", "result": 1.14}, {"measurement": "relative viability", "setting": "[8]; first compound 8 µM", "result": 1.04}, {"measurement": "relative viability", "setting": "[9]; first compound 0.253 µM", "result": 0.78}, {"measurement": "relative viability", "setting": "[9]; first compound 0.8 µM", "result": 0.649}, {"measurement": "relative viability", "setting": "[9]; first compound 2.53 µM", "result": 0.728}, {"measurement": "relative viability", "setting": "[9]; first compound 8 µM", "result": 0.593}, {"measurement": "relative viability", "setting": "[10]; first compound 0.253 µM", "result": 0.739}, {"measurement": "relative viability", "setting": "[10]; first compound 2.53 µM", "result": 1.02}, {"measurement": "relative viability", "setting": "[10]; first compound 8 µM", "result": 0.35}, {"measurement": "relative viability", "setting": "[11]; first compound 0.253 µM", "result": 0.72}, {"measurement": "relative viability", "setting": "[11]; first compound 0.8 µM", "result": 0.768}, {"measurement": "relative viability", "setting": "[11]; first compound 2.53 µM", "result": 0.736}, {"measurement": "relative viability", "setting": "[11]; first compound 8 µM", "result": 0.744}, {"measurement": "relative viability", "setting": "[12]; first compound 0.253 µM", "result": 0.771}, {"measurement": "relative viability", "setting": "[12]; first compound 0.8 µM", "result": 0.747}, {"measurement": "relative viability", "setting": "[12]; first compound 2.53 µM", "result": 0.832}, {"measurement": "relative viability", "setting": "[12]; first compound 8 µM", "result": 0.658}, {"measurement": "relative viability", "setting": "[13]; first compound 0.253 µM", "result": 0.883}, {"measurement": "relative viability", "setting": "[13]; first compound 0.8 µM", "result": 0.649}, {"measurement": "relative viability", "setting": "[13]; first compound 2.53 µM", "result": 0.889}, {"measurement": "relative viability", "setting": "[13]; first compound 8 µM", "result": 0.626}, {"measurement": "relative viability", "setting": "[14]; first compound 0.253 µM", "result": 0.451}, {"measurement": "relative viability", "setting": "[14]; first compound 0.8 µM", "result": 0.505}, {"measurement": "relative viability", "setting": "[14]; first compound 2.53 µM", "result": 1.09}, {"measurement": "relative viability", "setting": "[14]; first compound 8 µM", "result": 1.12}, {"measurement": "relative viability", "setting": "[15]; first compound 0.253 µM", "result": 0.744}, {"measurement": "relative viability", "setting": "[15]; first compound 0.8 µM", "result": 0.599}, {"measurement": "relative viability", "setting": "[15]; first compound 2.53 µM", "result": 0.923}, {"measurement": "relative viability", "setting": "[15]; first compound 8 µM", "result": 0.654}, {"measurement": "relative viability", "setting": "[16]; first compound 0.253 µM", "result": 0.77}, {"measurement": "relative viability", "setting": "[16]; first compound 0.8 µM", "result": 0.757}, {"measurement": "relative viability", "setting": "[16]; first compound 2.53 µM", "result": 0.863}, {"measurement": "relative viability", "setting": "[16]; first compound 8 µM", "result": 0.944}, {"measurement": "relative viability", "setting": "[17]; first compound 0.253 µM", "result": 0.738}, {"measurement": "relative viability", "setting": "[17]; first compound 0.8 µM", "result": 0.74}, {"measurement": "relative viability", "setting": "[17]; first compound 2.53 µM", "result": 0.731}, {"measurement": "relative viability", "setting": "[17]; first compound 8 µM", "result": 0.698}, {"measurement": "relative viability", "setting": "[18]; first compound 0.253 µM", "result": 1.26}, {"measurement": "relative viability", "setting": "[18]; first compound 0.8 µM", "result": 1.04}, {"measurement": "relative viability", "setting": "[18]; first compound 2.53 µM", "result": 1.32}, {"measurement": "relative viability", "setting": "[18]; first compound 8 µM", "result": 1.22}, {"measurement": "relative viability", "setting": "[19]; first compound 0.253 µM", "result": 0.732}, {"measurement": "relative viability", "setting": "[19]; first compound 0.8 µM", "result": 0.692}, {"measurement": "relative viability", "setting": "[19]; first compound 2.53 µM", "result": 0.712}, {"measurement": "relative viability", "setting": "[19]; first compound 8 µM", "result": 0.697}, {"measurement": "relative viability", "setting": "[20]; first compound 0.253 µM", "result": 1.02}, {"measurement": "relative viability", "setting": "[20]; first compound 0.8 µM", "result": 0.721}, {"measurement": "relative viability", "setting": "[20]; first compound 2.53 µM", "result": 0.903}, {"measurement": "relative viability", "setting": "[20]; first compound 8 µM", "result": 0.72}, {"measurement": "relative viability", "setting": "[21]; first compound 0.253 µM", "result": 0.99}, {"measurement": "relative viability", "setting": "[21]; first compound 0.8 µM", "result": 0.881}, {"measurement": "relative viability", "setting": "[21]; first compound 2.53 µM", "result": 1.19}, {"measurement": "relative viability", "setting": "[21]; first compound 8 µM", "result": 1.06}, {"measurement": "relative viability", "setting": "[22]; first compound 0.253 µM", "result": 0.456}, {"measurement": "relative viability", "setting": "[22]; first compound 0.8 µM", "result": 0.822}, {"measurement": "relative viability", "setting": "[22]; first compound 2.53 µM", "result": 0.974}, {"measurement": "relative viability", "setting": "[22]; first compound 8 µM", "result": 0.759}]}
